A short description of data set [1]: Lethal dose to produce acute toxicity was evaluated in white crossbred mice weighing 20-25 g. To be noted: mouse, in vivo.
The species entered for the next data set is Oryctolagus cuniculus. As to the kind of experiment: Myocardial infarction (MI) size was calculated as a percentage of the infarct area to the total area of the left ventricle of male chinchilla rabbits. Format: functional, Heart left ventricle. Set-up: concentration or dose not given beside the values.

For orientation: LD50 means the dose at which mortality reaches 50%. As to `CCCC1=C(O)C(=O)c2c(O)c(O)c(O)c(O)c2C1=O`, in data set [1], the LD50 worked out at 80 mg/kg. Further, the Activity in the data set listed under Oryctolagus cuniculus is reported as 10.08%. `COc1ccc(CCN(C)CCCC(C#N)(c2ccc(OC)c(OC)c2)C(C)C)cc1OC` (stereo not drawn) [VERAPAMIL]: the Activity in the data set listed under Oryctolagus cuniculus is 6.51%. In turn, `Cc1c(O)c(O)c2c(c1O)C(=O)C(SC[C@H](NC(=O)CC[C@H](N)C(=O)O)C(=O)NCC(=O)O)=C(SC[C@H](NC(=O)CC[C@H](N)C(=O)O)C(=O)NCC(=O)O)C2=O` had an LD50 in data set [1] of 1350 mg/kg. For the same molecule, the Activity in the data set filed under Oryctolagus cuniculus is listed as 7.15%. For `CCc1c(O)c(O)c2c(c1O)C(=O)C(SC[C@H](NC(=O)CC[C@H](N)C(=O)O)C(=O)NCC(=O)O)=C(SC[C@H](NC(=O)CC[C@H](N)C(=O)O)C(=O)NCC(=O)O)C2=O` the same measures were 1480 mg/kg and 8.35%.

Consider `O=[N+]([O-])OCC(CO[N+](=O)[O-])O[N+](=O)[O-]` [NITROGLYCERIN], for which the Activity in the data set listed under Oryctolagus cuniculus was 15.23%. In data set [1], `Cc1c(O)c(O)c2c(c1O)C(=O)C(SCCO)=C(SCCO)C2=O` came in with a median lethal dose (LD50) of 150 mg/kg. Also, in the data set listed under Oryctolagus cuniculus, the Activity was 9.97%. On the same counts, the results for `O=C(O)CCC1=C(O)C(=O)c2c(O)c(O)c(O)c(O)c2C1=O` are 95 mg/kg and 7.9%. On the same counts, the results for `CC(C)(C)C1=CC(=O)c2c(O)c(O)c(O)c(O)c2C1=O` are 170 mg/kg and 10.18%. Turning to `N[C@@H](CCC(=O)N[C@@H](CSC1=C(SC[C@H](NC(=O)CC[C@H](N)C(=O)O)C(=O)NCC(=O)O)C(=O)c2c(O)c(O)c(O)c(O)c2C1=O)C(=O)NCC(=O)O)C(=O)O`, the LD50 in data set [1] amounted to 1210 mg/kg. For the same molecule, the Activity in the data set listed under Oryctolagus cuniculus was 12.37%. On the same counts, the results for `CCC1=C(O)C(=O)c2c(O)c(O)c(O)c(O)c2C1=O` [ECHINOCHROME A] are 87 mg/kg and 7.76%.

These data come from ChEMBL document CHEMBL1131646, “Synthesis of some hydroxynaphthazarins and their cardioprotective effects under ischemia-reperfusion in vivo” (Bioorg Med Chem Lett, 1998).
